From paper PMC9527238, “Glutamate and GABAA receptor crosstalk mediates homeostatic regulation of neuronal excitation in the mammalian brain” (Signal Transduction and Targeted Therapy, 2022)

How the values were obtained:
Format in all cases: cell-based
α2K155Dβγ GABAAR = biological target: T1, α2K155Dβγ GABAAR (Rattus norvegicus, UniProt P23576+P63138, K183D); test: Patch clamp, HEK293, mutant GABAAR; conditions: HEK293, read-out: Glutamate potentiation of GABA currents, % of control, normalized to respective wild-type receptor
T1 construct: expressed in transfected cells; host or cells: HEK293
Procedure: (§1) Fig. 4 Property characterization of glutamate binding sites in HEK cells expressing wild-type or mutated αβγ GABAARs. a, b The effects of electrostatic charge and/or size of the pocket-forming residues on glutamate-induced functional modulation.
(§2) HEK293 cells were cultured in DMEM (Invitrogen) supplemented with 10% fetal bovine serum. Cells were grown to 40–60% confluence and transiently transfected using Lipofectamine 2000 (Invitrogen) with 1:0.5–1 plasmid/lipid ratio. Cells were transfected with a pBK-CMV expression vector containing a rat recombinant GABAAR α, β or γ subunits. Co-transections were done with a plasmid ratio of 1:1 αβ and 2:2:1 for αβγ subunit combinations, respectively. pcDNA3.1-GFP was also co-transfected along with GABAAR subunits as a transfected marker in order to facilitate the visualization of the transfected cells during electrophysiological experiments. Cells were re-plated on glass coverslips after 15–20 h transfection and were cultured for an additional 15–24 h before whole-cell patch-clamp recordings.
(§3) The site-directed mutagenesis of α, β or γ subunits were performed by using the QuikChange method (Stratagene). […] Wild-type or mutant subunits were transfected in HEK293 cells and subjected to electrophysiology examinations.
(§4) Whole-cell patch-clamp recordings were performed under voltage-clamp mode using an Axopatch 200B or 1D patch-clamp amplifier (Molecular Devices) on HEK293 cells and cultured neurons. Whole-cell currents were recorded at a holding potential of −60 mV, and signals were filtered at 2 kHz, digitized at 10 kHz (Digidata 1322 A). Recording pipettes (3–5 MΩ) were filled with the intracellular solution that contained (mM): CsCl 140, HEPES 10, Mg-ATP 4, QX-314 5, pH 7.20; osmolarity, 290–295 mOsm. BAPTA (10 mM) was added in the intracellular solution. The coverslips were continuously superfused with the extracellular solution containing (mM): NaCl 140, KCl 5.4, HEPES 10, MgCl2 1.0, CaCl2 1.3, glucose 20, pH 7.4; osmolarity, 305–315 mOsm. […] Dose–response curves were created by fitting data to Hill equation: I = Imax/[1 + (EC50/[A])^n], where I is the current, Imax is the maximum current, [A] is a given concentration of agonist, n is the Hill coefficient. […] All experiments were performed at room temperature.

α2E137Gβγ GABAAR = biological target: T2, α2E137Gβγ GABAAR (Rattus norvegicus, UniProt P23576+P63138, E165G); test: Patch clamp, HEK293, mutant GABAAR; conditions: HEK293, read-out: Glutamate potentiation of GABA currents, % of control, normalized to respective wild-type receptor
T2 construct: expressed in transfected cells; host or cells: HEK293
Procedure: as §1, §2, §3, §4

α2K104Dβγ GABAAR = biological target: T3, α2K104Dβγ GABAAR (Rattus norvegicus, UniProt P23576+P63138, K132D); test: Patch clamp, HEK293, mutant GABAAR; conditions: HEK293, read-out: Glutamate potentiation of GABA currents, % of control, normalized to respective wild-type receptor
T3 construct: expressed in transfected cells; host or cells: HEK293
Procedure: as §1, §2, §3, §4

αβ1E182Gγ GABAAR = biological target: T4, αβ1E182Gγ GABAAR (Rattus norvegicus, UniProt P15431+P62813, E207G); test: Patch clamp, HEK293, mutant GABAAR; conditions: HEK293, read-out: Glutamate potentiation of GABA currents, % of control, normalized to respective wild-type receptor
T4 construct: expressed in transfected cells; host or cells: HEK293
Procedure: as §1, §2, §3, §4

αβ3E182Gγ GABAAR = biological target: T5, αβ3E182Gγ GABAAR (Rattus norvegicus, UniProt P62813+P63079, E207G); test: Patch clamp, HEK293, mutant GABAAR; conditions: HEK293, read-out: Glutamate potentiation of GABA currents, % of control, normalized to respective wild-type receptor
T5 construct: expressed in transfected cells; host or cells: HEK293
Procedure: as §1, §2, §3, §4

[1] = biological target: T6, αK104βE181G GABAAR (α1 K104D and β2 E181G) (Rattus norvegicus, UniProt P62813+P63138, E206G/K131D); test: Patch clamp, HEK293, double mutant α1β2 GABAAR; conditions: HEK293, read-out: Glutamate potentiation of GABA currents, % of control, normalized to wild-type α1β2
T6 construct: expressed in transfected cells; host or cells: HEK293
Text: (§5) The subunits are color-coded individually. The boxed regions are further enlarged in the middle panels, highlighting the predicted glutamate binding pocket in the α+ and β− interface, just below the loop C. […] Relative potentiation was obtained by normalizing potentiation observed in the mutated receptor to that in the respective wild-type receptor.
(§6) To further investigate the characteristics of these four residues, double amino acid substitutions were introduced at residue pairs that are located at different (α1β2) subunits (Fig. 3f and Supplementary Fig. S6b).
as §2, §3
(§7) Whole-cell patch-clamp recordings were performed under voltage-clamp mode using an Axopatch 200B or 1D patch-clamp amplifier (Molecular Devices) on HEK293 cells and cultured neurons. Whole-cell currents were recorded at a holding potential of −60 mV, and signals were filtered at 2 kHz, digitized at 10 kHz (Digidata 1322 A). Recording pipettes (3–5 MΩ) were filled with the intracellular solution that contained (mM): CsCl 140, HEPES 10, Mg-ATP 4, QX-314 5, pH 7.20; osmolarity, 290–295 mOsm. BAPTA (10 mM) was added in the intracellular solution.

αE137GβE181G GABAAR = biological target: T7, αE137GβE181G GABAAR (Rattus norvegicus, UniProt P62813+P63138, E164G/E206G); test: Patch clamp, HEK293, double mutant α1β2 GABAAR; conditions: HEK293, read-out: Glutamate potentiation of GABA currents, % of control, normalized to wild-type α1β2
T7 construct: expressed in transfected cells; host or cells: HEK293
Text: as §5, §6, §2, §3, §7

T5 sequence (P62813 28-455): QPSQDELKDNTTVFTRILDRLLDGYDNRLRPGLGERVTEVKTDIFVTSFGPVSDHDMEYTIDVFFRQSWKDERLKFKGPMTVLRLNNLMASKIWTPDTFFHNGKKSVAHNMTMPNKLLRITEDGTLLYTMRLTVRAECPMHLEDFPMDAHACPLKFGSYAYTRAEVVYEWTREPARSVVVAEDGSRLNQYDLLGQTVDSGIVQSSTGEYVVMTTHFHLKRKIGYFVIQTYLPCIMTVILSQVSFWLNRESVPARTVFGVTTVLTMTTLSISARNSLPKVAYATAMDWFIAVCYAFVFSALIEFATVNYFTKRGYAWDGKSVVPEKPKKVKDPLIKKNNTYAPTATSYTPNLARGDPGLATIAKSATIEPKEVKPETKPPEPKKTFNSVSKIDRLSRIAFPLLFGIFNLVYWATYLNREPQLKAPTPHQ
T5 sequence (P63079 26-473 E207G): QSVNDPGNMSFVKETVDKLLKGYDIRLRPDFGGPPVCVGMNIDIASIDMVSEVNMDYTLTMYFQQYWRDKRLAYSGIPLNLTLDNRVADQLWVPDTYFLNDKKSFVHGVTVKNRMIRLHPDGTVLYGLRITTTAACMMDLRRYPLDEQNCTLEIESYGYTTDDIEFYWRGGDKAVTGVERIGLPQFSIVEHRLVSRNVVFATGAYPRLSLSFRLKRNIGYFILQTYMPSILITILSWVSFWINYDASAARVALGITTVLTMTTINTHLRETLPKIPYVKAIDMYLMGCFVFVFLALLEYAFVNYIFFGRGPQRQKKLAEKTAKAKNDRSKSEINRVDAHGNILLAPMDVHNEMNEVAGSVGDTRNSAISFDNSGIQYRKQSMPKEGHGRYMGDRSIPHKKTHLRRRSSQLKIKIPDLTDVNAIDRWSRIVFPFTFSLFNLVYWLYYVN
T5 sequence (P18508 39-466 partner): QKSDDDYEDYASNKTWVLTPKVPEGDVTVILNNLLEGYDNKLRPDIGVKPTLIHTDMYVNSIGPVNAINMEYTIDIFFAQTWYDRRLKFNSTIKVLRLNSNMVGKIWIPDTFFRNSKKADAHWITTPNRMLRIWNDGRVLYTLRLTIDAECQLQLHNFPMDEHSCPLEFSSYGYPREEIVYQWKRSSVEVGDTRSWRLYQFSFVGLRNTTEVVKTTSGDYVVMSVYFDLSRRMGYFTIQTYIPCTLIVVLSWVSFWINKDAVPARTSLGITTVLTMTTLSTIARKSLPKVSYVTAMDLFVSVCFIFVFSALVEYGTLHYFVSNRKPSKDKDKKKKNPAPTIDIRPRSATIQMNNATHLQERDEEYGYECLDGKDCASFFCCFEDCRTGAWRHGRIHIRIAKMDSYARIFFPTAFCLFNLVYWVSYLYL
T4 sequence (P62813 28-455): as the sequence (P62813 28-455) above
T4 sequence (P15431 26-474 E207G): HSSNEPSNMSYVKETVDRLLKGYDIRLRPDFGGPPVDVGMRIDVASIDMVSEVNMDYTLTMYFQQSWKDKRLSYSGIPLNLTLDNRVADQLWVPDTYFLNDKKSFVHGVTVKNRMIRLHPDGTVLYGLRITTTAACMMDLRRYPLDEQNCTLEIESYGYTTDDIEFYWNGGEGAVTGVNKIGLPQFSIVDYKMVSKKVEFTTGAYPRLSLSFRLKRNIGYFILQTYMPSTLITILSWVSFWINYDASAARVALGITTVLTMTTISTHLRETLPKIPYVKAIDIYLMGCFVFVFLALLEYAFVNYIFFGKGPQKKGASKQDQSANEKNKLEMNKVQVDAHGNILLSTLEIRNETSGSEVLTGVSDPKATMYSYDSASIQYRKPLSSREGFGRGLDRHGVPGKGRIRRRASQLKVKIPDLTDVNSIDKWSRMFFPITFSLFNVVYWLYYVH
T4 sequence (P18508 39-466 partner): as the sequence (P18508 39-466 partner) above
T2 sequence (P23576 29-451 E165G): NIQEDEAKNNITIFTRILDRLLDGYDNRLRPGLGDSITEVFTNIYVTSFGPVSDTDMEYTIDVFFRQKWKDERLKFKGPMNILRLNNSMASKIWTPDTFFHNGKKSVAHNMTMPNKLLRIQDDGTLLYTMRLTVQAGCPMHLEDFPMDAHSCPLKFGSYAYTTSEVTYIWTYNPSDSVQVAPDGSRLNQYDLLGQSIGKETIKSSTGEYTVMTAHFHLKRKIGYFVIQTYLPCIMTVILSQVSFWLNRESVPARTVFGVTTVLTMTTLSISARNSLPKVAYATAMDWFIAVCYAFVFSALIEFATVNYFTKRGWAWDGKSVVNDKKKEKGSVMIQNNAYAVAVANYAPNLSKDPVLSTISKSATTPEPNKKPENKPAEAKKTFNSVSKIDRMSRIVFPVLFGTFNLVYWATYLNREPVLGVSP
T2 sequence (P63138 26-474): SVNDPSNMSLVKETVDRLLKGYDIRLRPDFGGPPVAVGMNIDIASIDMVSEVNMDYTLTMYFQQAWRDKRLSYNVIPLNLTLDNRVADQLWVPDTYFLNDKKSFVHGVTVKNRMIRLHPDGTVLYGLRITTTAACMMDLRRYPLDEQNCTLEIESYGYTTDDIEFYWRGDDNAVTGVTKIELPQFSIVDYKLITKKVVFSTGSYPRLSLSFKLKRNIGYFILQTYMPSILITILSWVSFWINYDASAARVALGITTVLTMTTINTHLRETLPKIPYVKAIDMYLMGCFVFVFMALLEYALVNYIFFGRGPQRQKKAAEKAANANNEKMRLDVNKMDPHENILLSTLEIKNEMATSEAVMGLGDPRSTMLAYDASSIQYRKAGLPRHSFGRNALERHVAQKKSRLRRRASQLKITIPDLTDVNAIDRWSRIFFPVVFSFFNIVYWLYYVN
T2 sequence (P18508 39-466 partner): as the sequence (P18508 39-466 partner) above
T1 sequence (P23576 29-451 K183D): as the sequence (P23576 29-451 E165G) above, with G137E, K155D counted along it
T1 sequence (P63138 26-474): as the sequence (P63138 26-474) above
T1 sequence (P18508 39-466 partner): as the sequence (P18508 39-466 partner) above
T3 sequence (P23576 29-451 K132D): as the sequence (P23576 29-451 E165G) above, with K104D, G137E counted along it
T3 sequence (P63138 26-474): as the sequence (P63138 26-474) above
T3 sequence (P18508 39-466 partner): as the sequence (P18508 39-466 partner) above
T6 sequence (P62813 28-455 K131D): as the sequence (P62813 28-455) above, with K104D counted along it
T6 sequence (P63138 26-474 E206G): as the sequence (P63138 26-474) above, with E181G counted along it
T7 sequence (P62813 28-455 E164G): as the sequence (P62813 28-455) above, with E137G counted along it
T7 sequence (P63138 26-474 E206G): as the sequence (P63138 26-474) above, with E181G counted along it

**Q.** For N[C@@H](CCC(=O)O)C(=O)O [glutamate, Glutamate], which activity at 100 µM (α2K155Dβγ GABAAR; Glu 100 μM) is on record?
**A.** Its activity at 100 µM is 6.3 ± 6.9%.

**Q.** And the activity at 1000 µM (α2K155Dβγ GABAAR; Glu 1 mM)?
**A.** The activity at 1000 µM was 5.3 ± 2.1%.

**Q.** What about the activity at 100 µM (α2E137Gβγ GABAAR; Glu 100 μM) of the same compound?
**A.** Its activity at 100 µM is 0.3 ± 3.4%.

**Q.** What about the activity at 1000 µM (α2E137Gβγ GABAAR; Glu 1 mM) of the same compound?
**A.** Its activity at 1000 µM is 5.7 ± 6.2%.

**Q.** What about the activity at 100 µM (α2K104Dβγ GABAAR; Glu 100 μM) of the same compound?
**A.** The activity at 100 µM was 2.7 ± 3.1%.

**Q.** What about the activity at 1000 µM (α2K104Dβγ GABAAR; Glu 1 mM) of the same compound?
**A.** The activity at 1000 µM was 15.1 ± 4.4%.

**Q.** What about the activity at 100 µM (αβ1E182Gγ GABAAR; Glu 100 μM) of the same compound?
**A.** The activity at 100 µM was 2.4 ± 2%.

**Q.** What about the activity at 1000 µM (αβ1E182Gγ GABAAR; Glu 1 mM) of the same compound?
**A.** The activity at 1000 µM was 7.6 ± 1%.

**Q.** What about the activity at 100 µM (αβ3E182Gγ GABAAR; Glu 100 μM) of the same compound?
**A.** Its activity at 100 µM is 2.3 ± 5%.

**Q.** What about the activity at 1000 µM (αβ3E182Gγ GABAAR; Glu 1 mM) of the same compound?
**A.** The activity at 1000 µM was 2.4 ± 7.9%.

**Q.** And the activity at 100 µM ([1]; glutamate 100 μM)?
**A.** Its activity at 100 µM is 6.6%.

**Q.** And the activity at 1000 µM ([1]; glutamate 1 mM)?
**A.** Its activity at 1000 µM is 27.4 ± 12.6%.

**Q.** And the activity at 100 µM (αE137GβE181G GABAAR; glutamate 100 μM)?
**A.** Its activity at 100 µM is 9.2 ± 3%.

**Q.** And the activity at 1000 µM (αE137GβE181G GABAAR; glutamate 1 mM)?
**A.** Its activity at 1000 µM is 16.2 ± 1.3%.
